In patent US10189813B2, “Formylated N-heterocyclic derivatives as FGFR4 inhibitors” (NOVARTIS AG, priority 2015, dated 2019) one finds IC50 data, which are given here for 17 compounds.

Like-named read-outs stand apart in the source and are kept apart here.

For test [1], the target named is BaF3-Tel-FGFR4 cells (TEL fused to cytoplasmic domain of FGFR4) (Homo sapiens, UniProt P22455). As to the kind of experiment: In vitro cellular kinase assay for FGFR4 (BaF3-Tel-FGFR4, MSD capture ELISA of tyrosine phosphorylation). As to conditions: 1 hour incubation.
For test [2], the target named is T1, FGFR4 (GST-FGFR4(388-802)) (Homo sapiens, UniProt P22455).
T1 construct: GST-FGFR4(388-802); GST (N); made in house; host or cells: insect cells
As to the kind of experiment: In-vitro biochemical kinase assay for FGFR4 (Caliper mobility shift). The note with it: 60 minutes at 30° C. The method, then:
In-Vitro Biochemical Kinase Assays for FGFR4
All assays were performed in 384 well microtiter plates. Each assay plate contained 8-point serial dilutions for 40 test compounds, as well as four 8-point serial dilutions of staurosporine as reference compound, plus 16 high and 16 low controls.
(§1) Liquid handling and incubation steps were done on an Innovadyne Nanodrop Express equipped with a robotic arm (Thermo CatX, Caliper Twister II) and an incubator (Liconic STX40, Thermo Cytomat 2C450). The assay plates were prepared by addition of 50 nI per well of compound solution in 90% DMSO. […] Kinase reactions were incubated at 30° C. for 60 minutes and subsequently terminated by addition of 16 μl per well of stop solution (100 mM HEPES pH 7.5, 5% DMSO, 0.1% Caliper coating reagent, 10 mM EDTA, and 0.015% Brij35). Plates with terminated kinase reactions were transferred to the Caliper LC3000 workstations for reading. Phosphorylated and unphosphorylated peptides were separated using the Caliper microfluidic mobility shift technology. Briefly, samples from terminated kinase reactions were applied to the chip. Analytes are transported through the chip by constant buffer flow and the migration of the substrate peptide is monitored by the fluorescence signal of its label. Phosphorylated peptide (product) and unphosphorylated peptide (substrate) are separated in an electric field by their charge/mass ratio. Kinase activities were calculated from the amounts of formed phospho-peptide. IC50 values were determined from percent inhibition values at different compound concentrations by non-linear regression analysis.
Preparation of Compound Dilutions
Test compounds were dissolved in DMSO (10 mM) and transferred into 1.4 mL flat bottom or V-shaped Matrix tubes carrying a unique 2D matrix. The stock solutions were stored at […] if not used immediately. For the test procedure the vials were defrosted and identified by a scanner whereby a working sheet was generated that guided the subsequent working steps.
Compound dilutions were made in 96 well plates. This format enabled the assay of maximally 40 individual test compounds at 8 concentrations (single points) including 4 reference compounds. The dilution protocol included the production of “pre-dilution plates”, “master plates” and “assay plates”.
96 polypropylene well plates were used as pre-dilution plates. A total of 4 pre-dilution plates were prepared including 10 test compounds each on the plate positions A1-A10, one standard compound at A11 and one DMSO control at A12. All dilution steps were done on a HamiltonSTAR robot.
These plates were used directly for the assay which was performed in a total volume of 9.05 μL.

Test [3] deals with HuH-7 hepatocellular carcinoma cells. The test can be described thus: CellTiter Glo (CTG) proliferation/viability assay. It counts as cell-based. The note with it: HuH-7 cells, 3 days, half-maximal growth inhibition (GI50), read-out: HUH7 proliferation CTG. The method, then:
CellTiter Glo (CTG) Assay:
The functional effect of compounds on cell proliferation is assessed using HuH-7 hepatocellular carcinoma cells obtained from the Japanese Collection of Research Bioresources Cell Bank (Cat# JCRB0403) and cultured in the vendor-recommended medium (DMEM high glucose (Amimed Cat#1-26F01-I), 10% foetal calf serum (Invitrogen Cat#16140-071), 1 mM sodium pyruvate (Amimed Cat#5-60F00-H), 1× Penicillin/Streptomycin (Amimed Cat#4-01F00-H)) at 37° C. in a humidified 5% CO2 incubator. Compound-mediated suppression of cell proliferation/viability is assessed by quantification of cellular ATP levels using the CellTiter-Glo (CTG) reagent (Promega, Cat# G7573). Briefly, cells are seeded at 3′000 cells/well/80 μl fresh medium into tissue-culture-treated 96-well plates (Costar Cat#3904), followed by addition of 20 μl medium containing compound dilutions at 5-fold their final intended concentration. Dose-response effects are assessed by 3-fold serial dilutions of the test compound, starting at 10 μM. Following incubation of the cells for 3 days at 37° C. and 5% CO2, the effect of inhibitors on cell viability is quantified following addition of 50 μl CTG and luminescence measurement (integration time: 500 ms) as per vendor manual, using a correspondingly equipped multi-mode plate reader (M200Pro, TECAN, Switzerland). For data analysis, the assay background value determined in wells containing medium, but no cells, is subtracted from all data points. To enable differentiation of cytotoxic from cytostatic compounds, the number of viable cells is assessed relative to that observed at the time of compound addition using a separate cell plate (day 0). The effect of a particular test compound concentration on cell proliferation/viability is expressed as percentage of the background- and day 0-corrected luminescence reading obtained for cells treated with vehicle only (DMSO, 0.1% f.c.), which is set as 100%, whereas the luminescence reading for wells containing medium only, but no cells, is set as −100%. Compound concentrations leading to half-maximal growth inhibition (GI50) are determined using standard four parameter curve fitting (XLfit 5.2., IDBS, UK).
On the technique in general: In ATP-based viability assays light output follows the ATP content of the culture.

The target of test [4] is T2, FGFR3 (411-806) (Homo sapiens, UniProt P22607).
T2 construct: FGFR3 (411-806)
The test can be described thus: In vitro biochemical assay for FGFR3. On the procedure: as §1
(§2) In vitro biochemical assays for FGFR1 (407-822), FGFR2 (406-821) and FGFR3 (411-806) were conducted in a similar manner to the in vitro biochemical assay for FGFR4 described above, using the indicated portions of the kinase domains. The following examples all produced IC50 values >10000 nM in the biochemical FGFR1, FGFR2 and FGFR3 assays: 2, 3, 4, 11, 13, 16, 17, 18, 20, 28, 30.

In test [5] the target is T3, FGFR1 (407-822) (Homo sapiens, UniProt P11362).
T3 construct: FGFR1 (407-822)
As to the kind of experiment: In vitro biochemical assay for FGFR1. On the procedure:
as §1, §2

Test [6] addresses T4, FGFR2 (406-821) (Homo sapiens, UniProt P21802).
T4 construct: FGFR2 (406-821)
As to the kind of experiment: In vitro biochemical assay for FGFR2. The method, then:
as §1, §2

BaF3-Tel-FGFR4 cells (TEL fused to cytoplasmic domain of FGFR4), sequence (P22455 with tags, fused parts or gaps): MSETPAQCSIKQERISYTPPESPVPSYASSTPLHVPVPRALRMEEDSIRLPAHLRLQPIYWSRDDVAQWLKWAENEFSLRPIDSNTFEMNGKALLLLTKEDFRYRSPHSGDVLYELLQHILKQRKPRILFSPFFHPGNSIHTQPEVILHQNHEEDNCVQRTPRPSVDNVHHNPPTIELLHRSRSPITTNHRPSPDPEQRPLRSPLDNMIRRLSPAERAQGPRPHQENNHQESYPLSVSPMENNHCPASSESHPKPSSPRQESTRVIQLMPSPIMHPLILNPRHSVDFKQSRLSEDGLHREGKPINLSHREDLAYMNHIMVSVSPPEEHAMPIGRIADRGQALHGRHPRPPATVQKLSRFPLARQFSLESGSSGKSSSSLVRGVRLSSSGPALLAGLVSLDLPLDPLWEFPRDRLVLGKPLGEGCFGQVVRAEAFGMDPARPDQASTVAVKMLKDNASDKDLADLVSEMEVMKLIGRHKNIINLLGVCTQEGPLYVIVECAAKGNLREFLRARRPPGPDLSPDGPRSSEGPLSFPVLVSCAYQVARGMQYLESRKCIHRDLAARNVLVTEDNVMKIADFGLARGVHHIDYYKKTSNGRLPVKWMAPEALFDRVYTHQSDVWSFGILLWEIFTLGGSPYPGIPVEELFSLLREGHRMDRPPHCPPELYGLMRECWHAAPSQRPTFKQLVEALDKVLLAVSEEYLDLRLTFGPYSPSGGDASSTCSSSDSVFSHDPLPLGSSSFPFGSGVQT
T1 sequence (P22455 388-802): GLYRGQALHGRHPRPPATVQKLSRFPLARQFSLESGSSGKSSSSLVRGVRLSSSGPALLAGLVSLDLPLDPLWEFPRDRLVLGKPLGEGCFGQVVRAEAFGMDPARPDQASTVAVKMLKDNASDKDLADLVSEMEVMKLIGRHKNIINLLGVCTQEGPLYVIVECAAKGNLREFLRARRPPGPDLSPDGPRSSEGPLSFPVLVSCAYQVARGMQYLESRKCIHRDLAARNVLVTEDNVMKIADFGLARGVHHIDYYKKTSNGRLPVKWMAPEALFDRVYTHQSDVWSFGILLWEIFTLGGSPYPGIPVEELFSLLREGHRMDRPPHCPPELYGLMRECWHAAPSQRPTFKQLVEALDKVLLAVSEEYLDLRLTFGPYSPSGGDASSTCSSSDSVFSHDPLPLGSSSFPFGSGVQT
T4 sequence (P21802 406-821): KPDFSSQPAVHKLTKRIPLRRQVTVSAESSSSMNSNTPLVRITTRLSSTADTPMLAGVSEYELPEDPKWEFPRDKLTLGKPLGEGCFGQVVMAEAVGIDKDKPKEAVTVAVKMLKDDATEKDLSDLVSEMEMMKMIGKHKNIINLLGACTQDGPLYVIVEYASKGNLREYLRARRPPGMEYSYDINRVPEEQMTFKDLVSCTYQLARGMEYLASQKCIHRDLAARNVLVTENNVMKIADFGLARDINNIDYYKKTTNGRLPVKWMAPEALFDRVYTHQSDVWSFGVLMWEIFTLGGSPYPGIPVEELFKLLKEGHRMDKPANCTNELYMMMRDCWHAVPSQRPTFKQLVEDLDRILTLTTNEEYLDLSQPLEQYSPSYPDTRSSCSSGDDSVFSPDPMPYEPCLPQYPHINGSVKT
T2 sequence (P22607 411-806): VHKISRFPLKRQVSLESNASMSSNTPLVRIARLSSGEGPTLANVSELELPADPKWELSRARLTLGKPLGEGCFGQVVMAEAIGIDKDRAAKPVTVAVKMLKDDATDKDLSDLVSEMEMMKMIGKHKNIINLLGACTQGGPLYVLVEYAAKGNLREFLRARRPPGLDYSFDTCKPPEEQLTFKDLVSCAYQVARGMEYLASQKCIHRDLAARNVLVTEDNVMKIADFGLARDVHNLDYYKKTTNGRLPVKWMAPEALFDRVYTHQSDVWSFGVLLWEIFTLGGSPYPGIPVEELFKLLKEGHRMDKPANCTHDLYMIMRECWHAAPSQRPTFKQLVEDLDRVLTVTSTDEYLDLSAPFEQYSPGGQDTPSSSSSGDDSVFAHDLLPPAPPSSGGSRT
T3 sequence (P11362 407-822): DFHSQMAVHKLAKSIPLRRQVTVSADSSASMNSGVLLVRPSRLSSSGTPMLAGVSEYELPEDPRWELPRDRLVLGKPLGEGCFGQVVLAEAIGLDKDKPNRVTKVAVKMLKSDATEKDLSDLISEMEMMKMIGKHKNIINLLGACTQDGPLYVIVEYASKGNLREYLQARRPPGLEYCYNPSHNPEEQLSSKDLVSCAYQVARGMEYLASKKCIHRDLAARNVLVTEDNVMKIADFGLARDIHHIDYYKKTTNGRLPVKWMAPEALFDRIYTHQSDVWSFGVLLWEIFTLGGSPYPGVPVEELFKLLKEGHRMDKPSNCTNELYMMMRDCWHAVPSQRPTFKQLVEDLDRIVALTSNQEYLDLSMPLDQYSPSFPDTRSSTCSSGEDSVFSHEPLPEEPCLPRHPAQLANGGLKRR

For `COCCNc1cc(NC(=O)N(CC2CCOC2)c2ccc(CO)c(C=O)n2)ncc1C#N` (racemic) [Example 5, 3-(5-cyano-4-((2-methoxyethyl)amino)pyridin-2-yl)-1-(6-formyl-5-(hydroxymethyl)pyridin-2-yl)-1-((tetrahydrofuran-3-yl)methyl)urea], the IC50 came to 234 nM in test [1] and 66 nM in test [2].
On to `COC1CCN(Cc2ccc(N(C)C(=O)Nc3cc(OC(C)C)c(C#N)cn3)nc2C=O)C1` (racemic) [Example 26, 3-(5-cyano-4-isopropoxypyridin-2-yl)-1-(6-formyl-5-((3-methoxypyrrolidin-1-yl)methyl)pyridin-2-yl)-1-methylurea], for which the IC50 was 501 nM in test [1]; 17 nM in test [2]; above 3000 nM in test [3] (Homo sapiens, Huh-7, 72 h).
As for `COCCNc1cc(NC(=O)N(C[C@@H]2CCOC2)c2cccc(C=O)n2)ncc1C#N` (single isomer, unassigned) [Example 6], the IC50 came out at 140 nM in test [1] and 4.7 nM in test [2].
For `COCCNc1cc(NC(=O)N(C[C@H]2CCOC2)c2cccc(C=O)n2)ncc1C#N` (single isomer, unassigned) [Example 7], the IC50 in test [1] came to 223 nM; in test [2] it was 5.1 nM.
Regarding `N#Cc1ccc(Nc2ccccc2-c2cccc(C=O)n2)nc1` [Example 1, 6-((2-(6-formylpyridin-2-yl)phenyl)amino)nicotinonitrile], the IC50 in test [2] was 330 nM.
Regarding `COCCNc1cc(NC(=O)N(C)c2cccc(C=O)n2)ncc1C#N` [Example 2, 3-(5-cyano-4-((2-methoxyethyl)amino)pyridin-2-yl)-1-(6-formylpyridin-2-yl)-1-methylurea], the IC50 in test [4], in test [5] and in test [6] was above 10 µM throughout.
On to `COCCNc1cc(NC(=O)N(CCOC)c2cccc(C=O)n2)ncc1C#N` [Example 3, 3-(5-cyano-4-((2-methoxyethyl)amino)pyridin-2-yl)-1-(6-formylpyridin-2-yl)-1-(2-methoxyethyl)urea], for which the IC50 in test [4], in test [5] and in test [6] was above 10 µM in each case.
With `CC(C)Oc1cc(NC(=O)N(C)c2ccc(C(=O)O)c(C=O)n2)ncc1C#N` [Example 8, 6-(3-(5-cyano-4-isopropoxypyridin-2-yl)-1-methylureido)-2-formylnicotinic acid], the IC50 turned out to be 737 nM in test [1] and 1.6 nM in test [2].
Take `CCN(C(=O)Nc1cc(OC(C)C)c(C#N)cn1)c1ccc(-c2cnn(C)c2)c(C=O)n1` [Example 12, 3-(5-cyano-4-isopropoxypyridin-2-yl)-1-ethyl-1-(6-formyl-5-(1-methyl-1H-pyrazol-4-yl)pyridin-2-yl)urea]: the IC50 in test [1] turned out to be 33 nM; in test [2], 8.6 nM; in test [3] (Homo sapiens, Huh-7, 72 h), 2140 nM.
For `CC(C)Nc1cc(NC(=O)N(C)c2ccc(-c3cnn(C)c3)c(C=O)n2)ncc1C#N` [Example 14, 3-(5-cyano-4-(isopropylamino)pyridin-2-yl)-1-(6-formyl-5-(1-methyl-1H-pyrazol-4-yl)pyridin-2-yl)-1-methylurea], the IC50 in test [2] was 3.6 nM.
For the compound `CN(C(=O)Nc1ccc(C#N)cn1)c1ccc(CN2CCCC2=O)c(C=O)n1` [Example 19, 3-(5-cyanopyridin-2-yl)-1-(6-formyl-5-((2-oxopyrrolidin-1-yl)methyl)pyridin-2-yl)-1-methylurea], the IC50 in test [2] is 78 nM.
`CC(C)Oc1cc(NC(=O)N(C)c2ccc(CN3CCN(C)CC3=O)c(C=O)n2)ncc1C#N` [Example 21, 3-(5-cyano-4-isopropoxypyridin-2-yl)-1-(6-formyl-5-((4-methyl-2-oxopiperazin-1-yl)methyl)pyridin-2-yl)-1-methylurea]: the IC50 in test [1] was found to be 6.9 nM; in test [2], 4.8 nM; in test [3] (Homo sapiens, Huh-7, 72 h), 878 nM.
On to `CN(C(=O)Nc1cc(NCC(C)(C)O)c(C#N)cn1)c1ccc(-c2cnn(C)c2)c(C=O)n1` [Example 22, 3-(5-cyano-4-((2-hydroxy-2-methylpropyl)amino)pyridin-2-yl)-1-(6-formyl-5-(1-methyl-1H-pyrazol-4-yl)pyridin-2-yl)-1-methylurea], for which the IC50 in test [1] was 46 nM; in test [2] it was 5.7 nM; in test [3] (Homo sapiens, Huh-7, 72 h), above 3000 nM; in test [3], 1800 nM.
In the case of `CC(C)Oc1cc(NC(=O)N(C)c2ccc(CN3CCCC3=O)c(C=O)n2)ncc1C#N` [Example 23, 3-(5-cyano-4-isopropoxypyridin-2-yl)-1-(6-formyl-5-((2-oxopyrrolidin-1-yl)methyl)pyridin-2-yl)-1-methylurea], the IC50 in test [1] was determined as 8.8 nM; in test [2], 0.7 nM; in test [3] (Homo sapiens, Huh-7, 72 h), 118 nM.
In the case of `CC(C)Oc1cc(NC(=O)N(C)c2ccc(-c3cnn(C)c3)c(C=O)n2)ncc1C#N` [Example 25, 3-(5-cyano-4-isopropoxypyridin-2-yl)-1-(6-formyl-5-(1-methyl-1H-pyrazol-4-yl)pyridin-2-yl)-1-methylurea], the IC50 in test [2] was found to be 6.3 nM.
For the compound `COCCNc1cc(Nc2nccn2-c2ccc(-c3cnn(C)c3)c(C=O)n2)ncc1C(F)(F)F` [Example 27, 6-(2-((4-((2-methoxyethyl)amino)-5-(trifluoromethyl)pyridin-2-yl)amino)-1H-imidazol-1-yl)-3-(1-methyl-1H-pyrazol-4-yl)picolinaldehyde], the IC50 was 568 nM in test [1]; 340 nM in test [2]; above 3000 nM in test [3] (Homo sapiens, Huh-7, 72 h).
The corresponding values for `CC(C)Oc1cc(NC(=O)N(C)c2ccc(CN3CCCC3)c(C=O)n2)ncc1C#N` [Example 29, 3-(5-cyano-4-isopropoxypyridin-2-yl)-1-(6-formyl-5-(pyrrolidin-1-ylmethyl)pyridin-2-yl)-1-methylurea] are above 3000 nM, 250 nM and above 3000 nM.
